Assays:
Assay type in all cases: biochemical
[1] = target: T1, Tek (Homo sapiens, UniProt Q02763); assay: Recombinant GST-Tek (Tie-2) tyrosine kinase assay (33P into poly(Glu,Tyr)); settings: Examples 1 to 169
T1 construct: amino acids 773-1124 of the cytoplasmic kinase domain of human Tek, N-terminally fused to GST; made in house; host or cells: Sf9 insect cells (baculovirus)
Text: (Tie-2/Tek): The baculovirus donor vector pFbacG01 was used to generate a recombinant baculovirus that expressed the amino acid region amino acids 773-1124 of the cytoplasmic kinase domain of human Tek, N-terminally fused to GST (Provided by Dr. Marmé, Institute of Molecular Medicine, Freiburg, Germany based on a Research Collaboration). Tek was recloned into the pFbacG01 transfer vector by EcoRI excision and ligation into EcoRI digested pFbacG01 (FBG-Tie2/Tek).
Production of virus: Transfer vectors containing the kinase domains were transfected into the DH10Bac cell line (GIBCO) and plated on selective agar plates. Colonies without insertion of the fusion sequence into the viral genome (carried by the bacteria) are blue. Single white colonies were picked and viral DNA (bacmid) isolated from the bacteria by standard plasmid purification procedures. Sf9 cells or Sf21 cells were then transfected in 25 cm^2 flasks with the viral DNA using Cellfectin reagent.
Determination of small scale protein expression in Sf9 cells: Virus containing media was collected from the transfected cell culture and used for infection to increase its titer. Virus containing media obtained after two rounds of infection was used for large-scale protein expression. For large-scale protein expression 100 cm^2 round tissue culture plates were seeded with 5×10^7 cells/plate and infected with 1 mL of virus-containing media (approx. 5 MOIs). After 3 days the cells were scraped off the plate and centrifuged at 500 rpm for 5 min. Cell pellets from 10-20, 100 cm^2 plates, were resuspended in 50 mL of ice-cold lysis buffer (25 mMTris-HCl, pH7.5, 2 mMEDTA, 1% NP-40, 1 mM DTT, 1 mMP MSF). The cells were stirred on ice for 15 min and then centrifuged at 5000 rpms for 20 min.
Purification of GST-tagged proteins: The centrifuged cell lysate was loaded onto a 2 mL glutathione-sepharose column and washed three times with 10 mL of 25 mM Tris-HCl, pH 7.5, 2 mM EDTA, 1 mM DTT, 200 mM NaCl. The GST-tagged proteins were then eluted by 10 applications (1 mL each) of 25 mM Tris-HCl, pH 7.5, 10 mM reduced-glutathione, 100 mM NaCl, 1 mM DTT, 10% Glycerol and stored at −70° C.
Measure of enzyme activity: Tyrosine protein kinase assays with either purified GST-Ret, GST-Tek or GST-FGFR-3-K650E were carried out in a final volume of 30 μL with final concentrations of the following components: Ret included 15 ng of GST-Ret, 20 mM Tris-HCl, pH 7.5, 1 mM MnCl2, 10 mM MgCl2, 1 mM DTT, 3 μg/mL poly(Glu,Tyr) 4:1, 1% DMSO and 2.0 μM ATP (γ-[^33P]-ATP 0.1 μCi). Tek included 150 ng of GST-Tek, 20 mM Tris-HCl, pH 7.5, 3 mM MnCl2, 3 mM MgCl2, 1 mM DTT, 0.01 mM Na3VO4, 250 μg/mL PEG 20'000, 10 μg/mL poly(Glu,Tyr) 4:1, 1% DMSO and 4.0 μM ATP (γ-[^33P]-ATP 0.1 μCi). FGFR-3-K650E included 10 ng of GST-FGFR-3-K650E, 20 mM Tris-HCl, pH 7.5, 3 mM MnCl2, 3 mM MgCl2, 1 mM DTT, […], 10 μg/mL poly(Glu,Tyr) 4:1, 1% DMSO and 4.0 μM ATP (γ-[^33P]-ATP 0.1 μCi).The activity was assayed in the presence or absence of inhibitors, by measuring the incorporation of ^33P from [γ^33P] ATP into poly(Glu,Tyr) 4:1. The assay was carried out in 96-well plates at ambient temperature for 30 min under conditions described below and terminated by the addition of 50 μL of 125 mM EDTA. Subsequently, 60 μL of the reaction mixture were transferred onto Immobilon-PVDF membrane (Millipore) previously soaked for 5 min with methanol, rinsed with water, then soaked for 5 min with 0.5% H3PO4 and mounted on vacuum manifold with disconnected vacuum source. After spotting all samples, vacuum was connected and each well rinsed with 200 μL 0.5% H3PO4. Membranes were removed and washed 4× on a shaker with 1.0% H3PO4, once with ethanol. Membranes were counted after drying at ambient temperature, mounting in Packard TopCount 96-well frame, and addition of 10 μL/well of Microscint™ (Packard). […]

[2] = target: T2, KDR (Homo sapiens, UniProt P35968); assay: Inhibitory activity against KDR (VEGF-R2), in vitro data of Examples 170 and 207; settings: 10 μM; Examples 1 to 169; read-out: KDR inhibition at 10 μM
T2 construct: expressed in transfected cells; host or cells: CHO cells
T2 sequence (P35968 20-1356): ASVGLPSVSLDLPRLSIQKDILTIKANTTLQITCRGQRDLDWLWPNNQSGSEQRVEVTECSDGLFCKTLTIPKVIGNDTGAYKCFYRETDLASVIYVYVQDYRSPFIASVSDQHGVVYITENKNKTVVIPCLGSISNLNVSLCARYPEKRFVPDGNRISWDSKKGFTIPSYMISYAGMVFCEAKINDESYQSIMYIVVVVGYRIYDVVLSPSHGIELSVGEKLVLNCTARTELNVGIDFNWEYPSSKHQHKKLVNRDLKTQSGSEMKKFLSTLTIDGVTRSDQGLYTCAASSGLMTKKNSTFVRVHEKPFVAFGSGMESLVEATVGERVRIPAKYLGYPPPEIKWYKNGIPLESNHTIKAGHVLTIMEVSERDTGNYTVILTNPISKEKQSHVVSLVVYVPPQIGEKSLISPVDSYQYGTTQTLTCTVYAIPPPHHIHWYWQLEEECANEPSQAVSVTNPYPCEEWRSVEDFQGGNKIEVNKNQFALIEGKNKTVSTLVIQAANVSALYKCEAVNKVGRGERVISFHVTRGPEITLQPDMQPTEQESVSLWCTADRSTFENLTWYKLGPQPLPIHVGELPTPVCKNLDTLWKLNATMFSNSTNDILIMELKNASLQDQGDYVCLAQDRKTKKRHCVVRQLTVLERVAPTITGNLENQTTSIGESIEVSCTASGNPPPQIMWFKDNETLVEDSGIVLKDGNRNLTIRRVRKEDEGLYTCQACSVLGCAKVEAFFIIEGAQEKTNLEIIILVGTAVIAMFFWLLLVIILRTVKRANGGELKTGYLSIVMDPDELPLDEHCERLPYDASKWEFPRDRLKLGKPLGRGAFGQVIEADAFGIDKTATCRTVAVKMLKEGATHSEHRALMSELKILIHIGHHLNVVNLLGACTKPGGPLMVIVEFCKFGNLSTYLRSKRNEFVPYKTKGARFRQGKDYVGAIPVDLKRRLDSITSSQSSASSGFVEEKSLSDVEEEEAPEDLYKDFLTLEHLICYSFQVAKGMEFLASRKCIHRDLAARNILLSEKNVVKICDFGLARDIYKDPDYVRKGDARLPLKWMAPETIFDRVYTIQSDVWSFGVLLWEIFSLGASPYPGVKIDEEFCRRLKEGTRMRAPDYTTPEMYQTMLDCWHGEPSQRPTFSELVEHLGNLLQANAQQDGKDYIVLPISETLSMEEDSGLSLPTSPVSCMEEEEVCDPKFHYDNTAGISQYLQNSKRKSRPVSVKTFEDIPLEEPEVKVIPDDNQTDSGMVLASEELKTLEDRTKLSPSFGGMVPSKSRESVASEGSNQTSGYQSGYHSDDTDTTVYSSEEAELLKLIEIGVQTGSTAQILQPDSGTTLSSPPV
Method: (Controls comprise medium without test compounds). After two hours of incubation at 37° C., recombinant VEGF is added; the final VEGF concentration is 20 ng/ml. After a further five minutes incubation at 37° C., the cells are washed twice with ice-cold PBS (phosphate-buffered saline) and immediately lysed in 100 μl lysis buffer per well. The lysates are then centrifuged to remove the cell nuclei, and the protein concentrations of the supernatants are determined using a commercial protein assay (BIORAD). The lysates can then either be immediately used or, if necessary, stored at −20° C. […] The plates are then washed and the remaining free protein-binding sites are saturated with 3% TopBlock® (Juro, Cat. # TB232010) in phosphate buffered saline with Tween 20® (polyoxyethylen(20)sorbitane monolaurate, ICI/Uniquema) (PBST). The cell lysates (20 μg protein per well) are then incubated in these plates overnight at 4° C. together with an antiphosphotyrosine antibody coupled with alkaline phosphatase (PY20:AP from Zymed). […] The luminescence is measured in a Packard Top Count Microplate Scintillation Counter.

[3] = target: T3, FGFR3 (K650E) (Homo sapiens, UniProt P22607, K650E); assay: Recombinant GST-FGFR-3-K650E tyrosine kinase assay (33P into poly(Glu,Tyr)); settings: 10 μM; Examples 1 to 169; read-out: FGFR3 (K650E) inhibition at 10 μM
T3 construct: amino acids 411-806 of the cytoplasmic domain of human FGFR-3, N-terminally fused to GST; made in house; host or cells: Sf9 insect cells (baculovirus)
T3 sequence (P22607 411-806 K650E): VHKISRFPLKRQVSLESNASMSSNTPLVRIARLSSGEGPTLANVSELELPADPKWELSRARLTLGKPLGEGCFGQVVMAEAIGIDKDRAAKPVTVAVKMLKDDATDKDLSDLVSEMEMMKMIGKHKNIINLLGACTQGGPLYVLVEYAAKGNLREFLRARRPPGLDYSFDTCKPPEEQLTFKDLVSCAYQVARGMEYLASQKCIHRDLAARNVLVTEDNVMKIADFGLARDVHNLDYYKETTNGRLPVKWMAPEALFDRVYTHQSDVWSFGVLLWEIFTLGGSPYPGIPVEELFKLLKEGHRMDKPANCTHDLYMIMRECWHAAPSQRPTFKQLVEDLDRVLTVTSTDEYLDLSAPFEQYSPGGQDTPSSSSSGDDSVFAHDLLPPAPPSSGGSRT

T1 sequence (Q02763 773-1124): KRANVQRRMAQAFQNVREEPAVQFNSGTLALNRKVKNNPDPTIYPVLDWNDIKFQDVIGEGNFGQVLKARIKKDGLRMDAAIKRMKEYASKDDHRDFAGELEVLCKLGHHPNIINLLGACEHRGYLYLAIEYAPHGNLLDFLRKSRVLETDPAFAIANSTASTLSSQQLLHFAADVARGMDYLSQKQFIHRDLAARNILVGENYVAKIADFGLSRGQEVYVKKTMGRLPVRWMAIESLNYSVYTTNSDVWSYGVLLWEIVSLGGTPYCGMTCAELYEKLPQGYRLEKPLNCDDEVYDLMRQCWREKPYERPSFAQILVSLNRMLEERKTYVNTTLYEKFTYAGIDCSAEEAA

| SMILES | inhibition at 10 µM [1] [%] | inhibition at 10 µM [2] [%] | inhibition at 10 µM [3] [%] |
| --- | --- | --- | --- |
| COc1cc(NC(=O)Nc2cc(Nc3ccc(N4CCN(C)CC4)cc3)ncn2)ccc1F [Example 32, 1-(4-Fluoro-3-methoxy-phenyl)-3-{6-[4-(4-methyl-piperazin-1-yl)-phenyl-amino]-pyrimidin-4-yl}-urea] | 12 to 100 | 67 to 100 | 27 to 100 |
| O=C(Nc1cc(Nc2ccc(OCCN3CCOCC3)cc2)ncn1)Nc1c(Cl)cccc1Cl [Example 96, 1-(2,6-Dichloro-phenyl)-3-{6-[4-(2-morpholin-4-yl-ethoxy)-phenylamino]-pyrimidin-4-yl}-urea] | 12 to 100 | 67 to 100 | 27 to 100 |
| COc1cc(NC(=O)Nc2cc(Nc3cccc(OCCN4CCOCC4)c3)ncn2)c(Cl)c(OC)c1 [Example 45, 1-(2-Chloro-3,5-dimethoxy-phenyl)-3-{6-[3-(2-morpholin-4-yl-ethoxy)-phenylamino]-pyrimidin-4-yl}-urea] | 12 to 100 | 67 to 100 | 27 to 100 |
| COc1ccc(C)c(NC(=O)Nc2cc(Nc3ccc(N4CCN(C)CC4)cc3)ncn2)c1 [Example 26, 1-(5-Methoxy-2-methyl-phenyl)-3-{6-[4-(4-methyl-piperazin-1-yl)-phenyl-amino]-pyrimidin-4-yl}-urea] | 12 to 100 | 67 to 100 | 27 to 100 |
| COc1ccc(OC)c(NC(=O)Nc2cc(Nc3cccc(N4CCN(C)CC4)c3)ncn2)c1 [Example 13, 1-(2,5-Dimethoxy-phenyl)-3-{6-[3-(4-methyl-piperazin-1-yl)-phenyl-amino]-pyrimidin-4-yl}-urea] | 12 to 100 | 67 to 100 | 27 to 100 |
| COc1ccc(Cl)c(NC(=O)Nc2cc(Nc3ccc(N4CCN(C)CC4)cc3)ncn2)c1Cl [Example 36, 1-(2,6-Dichloro-3-methoxy-phenyl)-3-{6-[4-(4-methyl-piperazin-1-yl)-phenyl-amino]-pyrimidin-4-yl}-urea] | 12 to 100 | 67 to 100 | – |
| COc1ccc(Cl)c(NC(=O)Nc2cc(Nc3ccc(N4CCN(C)CC4)cc3)ncn2)c1 [Example 28, 1-(2-Chloro-5-methoxy-phenyl)-3-{6-[4-(4-methyl-piperazin-1-yl)-phenyl-amino]-pyrimidin-4-yl}-urea] | 12 to 100 | 67 to 100 | – |
| COc1cc(NC(=O)Nc2cc(Nc3ccc(N4CCN(C)CC4)cc3)ncn2)c(Cl)c(OC)c1 [Example 40, 1-(2-Chloro-3,5-dimethoxy-phenyl)-3-{6-[4-(4-methyl-Piperazin-1-yl)-phenyl-amino]-pyrimidin-4-yl}-urea] | 12 to 100 | 67 to 100 | – |

The next lines start with the values.

| inhibition at 10 µM [1] [%] | inhibition at 10 µM [2] [%] | inhibition at 10 µM [3] [%] | SMILES |
| --- | --- | --- | --- |
| 12 to 100 | 67 to 100 | 27 to 100 | CCN(C(=O)Nc1c(Cl)c(OC)cc(OC)c1Cl)c1cc(Nc2ccc(OCCN3CCCC3)cc2)ncn1 [Example 156, 3-(2,6-Dichloro-3,5-dimethoxy-phenyl)-1-ethyl-1-{6-[4-(2-pyrrolidin-1-yl-ethoxy)-phenylamino]-pyrimidin-4-yl}-urea] |
| 12 to 100 | 67 to 100 | – | COc1cc(NC(=O)N(C)c2cc(Nc3ccc(N4CCN(C)CC4)cc3)ncn2)cc(OC)c1 [Example 47, 3-(3,5-Dimethoxy-phenyl)-1-methyl-1-{6-[4-(4-methyl-piperazin-1-yl)-phenylamino]-pyrimidin-4-yl}-urea] |
| 12 to 100 | 67 to 100 | 27 to 100 | CCN1CCN(Cc2ccc(Nc3cc(NC(=O)Nc4c(Cl)c(OC)cc(OC)c4Cl)ncn3)cc2C(F)(F)F)CC1 [Example 168, 1-(2,6-Dichloro-3,5-dimethoxy-phenyl)-3-{6-[4-(4-ethyl-piperazin-1-ylmethyl)-3-trifluoromethyl-phenylamino]-pyrimidin-4-yl}-urea] |
| 12 to 100 | 67 to 100 | – | COc1cc(OC)c(Cl)c(NC(=O)N(C)c2cc(Nc3cccc(N4CCN(C)CC4)c3)ncn2)c1Cl [Example 3, 3-(2,6-Dichloro-3,5-dimethoxy-phenyl)-1-methyl-1-{6-[3-(4-methyl-piperazin-1-yl)-phenylamino]-pyrimidin-4-yl}-urea] |
| 12 to 100 | 67 to 100 | – | COc1cc(OC)c(Cl)c(NC(=O)N(C)c2cc(Nc3ccc(CCCN(C)C)cc3)ncn2)c1Cl [Example 147, 3-(2,6-Dichloro-3,5-dimethoxy-phenyl)-1-{6-[4-(3-dimethylamino-propyl)-phenylamino]-pyrimidin-4-yl}-1-methyl-urea] |
| 12 to 100 | 67 to 100 | – | COc1cc(OC)c(Cl)c(NC(=O)N(C)c2cc(Nc3ccc(OCCN4CCCC4)cc3)ncn2)c1Cl [Example 148, 3-(2,6-Dichloro-3,5-dimethoxy-phenyl)-1-methyl-1-{6-[4-(2-pyrrolidin-1-yl-ethoxy)-phenylamino]-pyrimidin-4-yl}-urea] |
| 12 to 100 | 67 to 100 | – | CCN(C(=O)Nc1cc(OC)cc(OC)c1Cl)c1cc(Nc2ccc(N3CCN(C)CC3)cc2)ncn1 [Example 55, 3-(2-Chloro-3,5-dimethoxy-phenyl)-1-ethyl-1-{6-[4-(4-methyl-piperazin-1-yl)-phenylamino]-pyrimidin-4-yl}-urea] |
| 12 to 100 | 67 to 100 | – | COc1cc(NC(=O)N(C)c2cc(Nc3ccc(N4CCN(C)CC4)cc3)ncn2)c(Cl)c(OC)c1 [Example 50, 3-(2-Chloro-3,5-dimethoxy-phenyl)-1-methyl-1-{6-[4-(4-methyl-piperazin-1-yl)-phenylamino]-pyrimidin-4-yl}-urea] |
| 12 to 100 | 67 to 100 | – | COc1cc(OC)c(Cl)c(NC(=O)N(C)c2cc(Nc3cccc(CN(C)C)c3)ncn2)c1Cl [Example 144, 3-(2,6-Dichloro-3,5-dimethoxy-phenyl)-1-[6-(3-dimethylaminomethyl-phenylamino)-pyrimidin-4-yl]-1-methyl-urea] |

From US8552002B2 (Novartis AG, priority 2004, dated 2013)
